Assay results as given in ChEMBL document CHEMBL5325414, “Novel neuroprotective pyromeconic acid derivatives with concurrent anti-Aβ deposition, anti-inflammatory, and anti-oxidation properties for treatment of Alzheimer's disease” (Eur J Med Chem, 2023).
Active and inactive are the calls of the source. The calls are words filed in the database; no cut-off is given here.

Columns and labels:
[1] = Metal chelating activity assessed as compound-Na+ complex formation by optical shift at 50 uM in PBS buffer 7.4 by UV-vis spectrometric analysis
[2] = Acute toxicity in mouse assessed as change in body weight at 2000 mg/kg, IG administered as single dose measured after 14 days; assay type: organism-based; conditions: in vivo, po, 336 h, time 14 day
[3] = Drug concentration in hippocampus of Sprague-Dawley rat at 15 mg/kg, IG measured after 0.25 hrs; assay type: ADME, organism-based; conditions: po, read-out: Drug uptake
[4] = Drug concentration in plasma of Sprague-Dawley rat at 15 mg/kg, IG measured after 0.083 hrs; assay type: ADME, organism-based; conditions: po
[5] = Acute toxicity in mouse assessed as histopathological change in spleen at 2000 mg/kg, IG administered as single dose measured after 14 days measured by H and E staining analysis; assay type: organism-based; conditions: in vivo, po, 336 h, time 14 day
Mus musculus [6] = assay: In vivo antiinflammatory activity in scopolamine induced cognitive impaired ICR mouse assessed as decrease in GFAP levels in cortex; assay type: functional, organism-based
[7] = Metal chelating activity assessed as compound-Mg2+ complex formation by optical shift at 50 uM in PBS buffer 7.4 by UV-vis spectrometric analysis
Mus musculus [8] = assay: Anti alzheimer activity in scopolamine induced anxiety in ICR mouse assessed as increase in discrimination ratio pretreated with scopolamine at 3 mg/kg, ip for 31 days followed by compound addition at 20 mg/kg, po at day 7 to 31 by novel object recognition test; assay type: functional, organism-based; conditions: time 25.0 day
[9] = Ratio of drug concentration in hippocampus to plasma of Sprague-Dawley rat at 15 mg/kg, IG measured after 1 hrs; assay type: ADME, organism-based; conditions: po
Mus musculus [10] = assay: In vivo effect on NRF2 expression in scopolamine induced cognitive impaired mouse assessed as reversal of NRF2 signalling in hippocampus treated at 20 mg/kg by immunofluorescence analysis; assay type: functional, organism-based
[11] = Drug concentration in plasma of Sprague-Dawley rat at 15 mg/kg, IG measured after 0.5 hrs; assay type: ADME, organism-based; conditions: po
Mus musculus [12] = assay: Anti alzheimer activity in scopolamine induced anxiety in ICR mouse assessed as relieved anxiety pretreated with scopolamine at 3 mg/kg, ip for 31 days followed by compound addition at 20 mg/kg, po at day 7 to 31; assay type: functional, organism-based; conditions: time 25.0 day
[13] = Ratio of drug concentration in hippocampus to plasma of Sprague-Dawley rat at 15 mg/kg, IG measured after 0.083 hrs; assay type: ADME, organism-based; conditions: po
[14] = Ratio of drug concentration in hippocampus to plasma of Sprague-Dawley rat at 15 mg/kg, IG measured after 0.167 hrs; assay type: ADME, organism-based; conditions: po
Mus musculus [15] = assay: In vivo effect on HO-1 expression in scopolamine induced cognitive impaired mouse assessed as reversal of NRF2 signalling in hippocampus treated at 20 mg/kg by immunoblot analysis; assay type: functional, organism-based
Mus musculus [16] = assay: Neuroprotective effect in scopolamine induced cognitively impaired mouse assessed as decrease in neuronal damage in CA1 region by measuring increase in neuronal nuclear antigen level at hippocampus at 20 mg/kg by immunoblot analysis; assay type: functional, organism-based
BV-2 [17] = assay: Antioxidant activity in H2O2 treated mouse BV-2 cells assessed as reversal of HO-1 level at 5 to 20 uM by immunofluorescence analysis; assay type: functional, cell-based; conditions: dose 5-20 µM
[18] = Drug concentration in hippocampus of Sprague-Dawley rat at 15 mg/kg, IG measured after 0.083 hrs; assay type: ADME, organism-based; conditions: po, read-out: Drug uptake
BV-2 [19] = assay: Effect of amyloid beta (1 to 42) indued apoptosis in mouse BV-2 cells assessed as early apoptotic cells at 5 uM measured by propidium iodide staining based flow cytometric analysis (reference value: 26.12%); assay type: functional
Mus musculus [20] = assay: Antioxidant activity in scopolamine induced cognitive impaired mouse assessed as reversal of HO-1 level in cortex at 20 mg/kg; assay type: functional, organism-based
[21] = Metal chelating activity assessed as compound-Fe2+ complex formation by measuring shift at 2:1 at 50 uM in PBS buffer 7.4 by UV-vis spectrometric analysis
Mus musculus [22] = assay: Anti alzheimer activity in scopolamine induced anxiety in ICR mouse assessed as improved cognitive function pretreated with scopolamine at 3 mg/kg, ip for 31 days followed by compound addition at 20 mg/kg, po at day 7 to 31 by morris water maze test; assay type: functional, organism-based; conditions: time 25.0 day
BV-2 [23] = assay: Antiinflammatory activity in LPS induced mouse BV-2 cells decrease in release of […] at 5 uM by […] (reference value: 100%); assay type: functional
[24] = biological target: T1, Amyloid-beta precursor protein (Homo sapiens, UniProt P05067); assay: Inhibition of Fe3+ induced of amyloid beta (1 to 42) aggregation (unknown origin)
T1 sequence (P05067 whole entry): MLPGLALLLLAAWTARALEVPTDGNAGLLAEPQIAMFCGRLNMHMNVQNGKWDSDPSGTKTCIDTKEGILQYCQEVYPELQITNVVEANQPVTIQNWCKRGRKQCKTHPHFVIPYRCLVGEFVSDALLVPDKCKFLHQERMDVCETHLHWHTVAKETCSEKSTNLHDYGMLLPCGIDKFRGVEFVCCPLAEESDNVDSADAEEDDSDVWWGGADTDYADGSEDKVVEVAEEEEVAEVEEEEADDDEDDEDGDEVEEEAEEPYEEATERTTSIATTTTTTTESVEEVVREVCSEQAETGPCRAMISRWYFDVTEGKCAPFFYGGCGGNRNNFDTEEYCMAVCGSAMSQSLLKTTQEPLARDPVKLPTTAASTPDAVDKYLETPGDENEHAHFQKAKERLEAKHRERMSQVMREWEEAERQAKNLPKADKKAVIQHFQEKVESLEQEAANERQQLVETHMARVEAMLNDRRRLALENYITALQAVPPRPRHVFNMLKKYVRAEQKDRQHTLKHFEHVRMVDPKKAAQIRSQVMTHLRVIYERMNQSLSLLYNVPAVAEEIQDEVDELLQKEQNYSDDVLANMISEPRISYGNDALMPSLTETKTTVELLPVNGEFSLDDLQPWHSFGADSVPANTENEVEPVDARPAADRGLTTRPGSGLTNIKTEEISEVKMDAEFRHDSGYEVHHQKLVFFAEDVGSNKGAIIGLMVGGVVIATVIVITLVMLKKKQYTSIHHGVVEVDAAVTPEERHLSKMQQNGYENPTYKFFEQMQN

[25] = Metal chelating activity assessed as compound-Cu2+ complex formation by measuring shift at 1:1 at 50 uM in PBS buffer 7.4 by UV-vis spectrometric analysis
BV-2 [26] = assay: Effect of amyloid beta (1 to 42) indued apoptosis in mouse BV-2 cells assessed as necrotic cells at 5 uM measured by propidium iodide staining based flow cytometric analysis (reference value: 5.72%); assay type: functional
Mus musculus [27] = assay: Neuroprotective effect in scopolamine induced cognitively impaired mouse assessed as recovery of decreased Nissl bodies in CA3 region at hippocampus at 20 mg/kg by Nissl staining analysis; assay type: functional, organism-based
[28] = Drug concentration in plasma of Sprague-Dawley rat at 15 mg/kg, IG measured after 2 hrs; assay type: ADME, organism-based; conditions: po
Mus musculus [29] = assay: Neuroprotective effect in scopolamine induced cognitively impaired mouse assessed as reversal of amyloid beta plaque deposition at 20 mg/kg by immunohistochemistry staining analysis; assay type: functional, organism-based
BV-2 [30] = assay: Effect on H2O2 induced reactive oxygen species in mouse BV-2 cells assessed as reduction of ROS generation at 10 uM by fluorescence microscopic analysis relative to control; assay type: functional; design: scale not given: the % may be the effect or the level left
BV-2 [31] = assay: Neuroprotective activity against amyloid beta (1 to 42) induced neurotoxicity in mouse BV-2 cells assessed as survival of cells at 2.5 uM treated for 24 hrs relative to control; assay type: functional
Mus musculus [32] = assay: Anti alzheimer activity in scopolamine induced anxiety in ICR mouse assessed as improved exploratory activity pretreated with scopolamine at 3 mg/kg, ip for 31 days followed by compound addition at 20 mg/kg, po at day 7 to 31; assay type: functional, organism-based; conditions: time 25.0 day
[33] = Metal chelating activity assessed as compound-Mn2+ complex formation by optical shift at 50 uM in PBS buffer 7.4 by UV-vis spectrometric analysis
Mus musculus [34] = assay: Anti alzheimer activity in scopolamine induced anxiety in ICR mouse assessed as decrease in motor trajectories pretreated with scopolamine at 3 mg/kg, ip for 31 days followed by compound addition at 20 mg/kg, po at day 7 to 31 by morris water maze test; assay type: functional, organism-based; conditions: time 25.0 day
Mus musculus [35] = assay: Antioxidant activity in scopolamine induced cognitive impaired mouse assessed as decrease of MDA level in cortex at 20 mg/kg; assay type: functional, organism-based
[36] = biological target: T1, Amyloid-beta precursor protein; assay: Inhibition of Cu2+ induced of amyloid beta (1 to 42) aggregation (unknown origin)
Mus musculus [37] = assay: Neuroprotective effect in scopolamine induced cognitively impaired mouse assessed as recovery of decreased Nissl bodies in CA1 region at hippocampus at 20 mg/kg by Nissl staining analysis; assay type: functional, organism-based
[38] = Metal chelating activity assessed as compound-Ca2+ complex formation by optical shift at 50 uM in PBS buffer 7.4 by UV-vis spectrometric analysis

Question: Which results are given for `O=c1ccoc(/C=C/c2ccc(O)c(O)c2)c1O`?
Answer: Activity [1]: inactive; Activity [2]: Non-Toxic; concentration at 0.25 h [3]: 2.57 ng/mL; concentration at 0.083 h [4]: 18.5 ng/mL; Activity [5]: Non-Toxic; Activity (Mus musculus [6]): Active; Activity [7]: inactive; Activity (Mus musculus [8]): Active; Kp at 1 h [9]: 5.04; Activity (Mus musculus [10]): Active; concentration at 0.5 h [11]: 2.68 ng/mL; Activity (Mus musculus [12]): Active; Kp at 0.083 h [13]: 0.07; Kp at 0.167 h [14]: 0.07; Activity (Mus musculus [15]): Active; Activity (Mus musculus [16]): Active; Activity (BV-2 [17]): Active; concentration at 0.083 h [18]: 1.14 ng/mL; Activity (BV-2 [19]): 8.32%; Activity (Mus musculus [20]): Active; Activity [21]: Active; Activity (Mus musculus [22]): Active; Nitric oxide release (% of LPS control) (BV-2 [23]): 86.32%; IC50 [24]: 9.68 µM; Activity [25]: Active; Activity (BV-2 [26]): 0.84%; Activity (Mus musculus [27]): Active; concentration at 2 h [28]: 0.99 ng/mL; Activity (Mus musculus [29]): Active; Activity (BV-2 [30]): 34.85%; Activity (BV-2 [31]): 56.3%; Activity (Mus musculus [32]): Active; Activity [33]: inactive; Activity (Mus musculus [34]): Active; Activity (Mus musculus [35]): Active; IC50 [36]: 3.69 µM; Activity (Mus musculus [37]): Active; Activity [38]: inactive
